Results: patent US9650395B2, “Antibacterial compounds and methods for use” (PTC Therapeutics, Inc., priority 2011, dated 2017)
Values after ≈ are worked out from the molar mass of the structure shown.

Legend:
[1] = tested on: resistant K. pneumoniae MXX1232 (MDR clinical isolate); test: Antibacterial activity, MIC, resistant K. pneumoniae MXX1232; assay type: cell-based, Klebsiella pneumoniae; details: Klebsiella pneumoniae; resistant K. pneumoniae MMX1232, MDR clinical isolate; read-out: MIC MMX1232
[2] = tested on: quinolone resistant E. coli LZ3111; test: Antibacterial activity, MIC, quinolone resistant E. coli LZ3111; assay type: cell-based, Escherichia coli; details: Escherichia coli, read-out: MIC, LZ3111
From the text: (§1) The antibacterial activity from a microbroth dilution method may be presented as the minimum inhibitory concentration (MIC in […]). The MIC value is the lowest concentration of a drug which prevents macroscopically visible bacterial growth under test conditions.
Mutations in these regions are known to confer a high level resistance to the quinolone class of antibiotics.

[3] = tested on: control Gram-negative E. coli 25922 strain; test: Antibacterial activity, microbroth dilution MIC, E. coli 25922; assay type: cell-based, Escherichia coli; details: Escherichia coli; E. coli 25922, microbroth dilution; read-out: MIC, 25922
[4] = tested on: E. coli ELZ4251 (MDR clinical isolate); test: Antibacterial activity, MIC, MDR E. coli ELZ4251; assay type: cell-based, Escherichia coli; details: Escherichia coli, E. coli ELZ4251, MDR clinical isolate; read-out: MIC ELZ4251
[5] = tested on: resistant A. baumannii MXX2240 (MDR clinical isolate); test: Antibacterial activity, MIC, resistant A. baumannii MXX2240; assay type: cell-based, Acinetobacter baumannii; details: Acinetobacter baumannii, resistant A. baumannii MMX2240, MDR clinical isolate; read-out: MIC MMX2240
[6] = tested on: Pseudomonas aeruginosa (P. aeruginosa) 27853; test: Antibacterial activity, MIC, P. aeruginosa 27853; assay type: cell-based; details: Pseudomonas aeruginosa, P. aeruginosa 27853; read-out: MIC 27853
From the text: as §1
Antibacterial activity of test compounds against the Gram-negative bacterium Pseudomonas aeruginosa (P. aeruginosa) 27853 is shown in Table 5.

[7] = tested on: Gram-positive Staphylococcus aureus (S. aureus) 29213; test: Antibacterial activity, microbroth dilution MIC, S. aureus 29213; assay type: cell-based; details: Staphylococcus aureus; S. aureus 29213, microbroth dilution; read-out: MIC, 29213
[8] = tested on: Klebsiella pneumoniae (K. pneumoniae) 35657; test: Antibacterial activity, MIC, K. pneumoniae 35657; assay type: cell-based; details: Klebsiella pneumoniae
[9] = tested on: super sensitive Gram-negative Escherichia coli (E. coli) BAS849; test: Antibacterial activity, microbroth dilution MIC, E. coli BAS849; assay type: cell-based; details: Escherichia coli; E. coli BAS849, microbroth dilution; read-out: MIC, BAS849
[10] = tested on: Acinetobacter baumannii (A. baumannii) BAA747; test: Antibacterial activity, MIC, A. baumannii BAA747; assay type: cell-based; details: Acinetobacter baumannii; A. baumannii BAA747; read-out: MIC BAA747
[11] = tested on: Moraxella catarrhalis (M. catarrhalis) 25238; test: Antibacterial activity, MIC, M. catarrhalis 25238; assay type: cell-based; details: Moraxella catarrhalis, M. catarrhalis 25238; read-out: MIC 25238
[12] = tested on: E. coli ELZ4000 (MDR clinical isolate); test: Antibacterial activity, MIC, MDR E. coli ELZ4000; assay type: cell-based, Escherichia coli; details: Escherichia coli; E. coli ELZ4000, MDR clinical isolate; read-out: MIC ELZ4000
[13] = tested on: Neisseria meningitidis (N. meningitidis) 13090; test: Antibacterial activity, MIC, N. meningitidis 13090; assay type: cell-based; details: Neisseria meningitidis; N. meningitidis 13090; read-out: MIC 13090
[14] = tested on: Haemophilus influenzae (H. influenzae) 49247; test: Antibacterial activity, MIC, H. influenzae 49247; assay type: cell-based; details: Haemophilus influenzae; H. influenzae 49247; read-out: MIC 49247
Method in brief: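 A microbroth dilution method gave the minimum inhibitory concentration for each compound against H. influenzae 49247, a Gram-negative bacterium. MIC means the smallest concentration of drug at which no macroscopically visible bacterial growth appears under the conditions of the test.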

Structure (SMILES): Cc1c(-c2ccc(N(C)C)cc2)[nH]c(=O)c(C(=O)O)c1O [Cpd 5, 6-[4-(dimethylamino)phenyl]-4-hydroxy-5-methyl-2-oxo-1,2-dihydropyridine-3-carboxylic acid]
- MIC [1]: 12.5 to 150 µg/mL (≈ 43.4 to 520 µM)
- MIC [2]: 1 to 3.5 µg/mL (≈ 3.47 to 12.1 µM)
- MIC [3]: 12.5 to 150 µg/mL (≈ 43.4 to 520 µM)
- MIC [4]: 1 to 3.5 µg/mL (≈ 3.47 to 12.1 µM)
- MIC [5]: < 1 µg/mL
- MIC [6]: 12.5 to 150 µg/mL (≈ 43.4 to 520 µM)
- MIC [7]: 12.5 to 150 µg/mL (≈ 43.4 to 520 µM)
- MIC [8]: 12.5 to 150 µg/mL (≈ 43.4 to 520 µM)
- MIC [9]: < 1 µg/mL
- MIC [10]: 3.5 to 12.5 µg/mL (≈ 12.1 to 43.4 µM)
- MIC [11]: 1 to 3.5 µg/mL (≈ 3.47 to 12.1 µM)
- MIC [12]: 3.5 to 12.5 µg/mL (≈ 12.1 to 43.4 µM)
- MIC [13]: < 1 µg/mL
- MIC [14]: 1 to 3.5 µg/mL (≈ 3.47 to 12.1 µM)

Structure (SMILES): CCc1cc(C(=O)O)c(=O)[nH]c1-c1ccc(N(C)C)nc1 [Cpd 86, 6-[6-(dimethylamino)pyridin-3-yl]-5-ethyl-2-oxo-1,2-dihydropyridine-3-carboxylic acid]
- MIC [1]: 12.5 to 150 µg/mL (≈ 43.5 to 522 µM)
- MIC [2]: 12.5 to 150 µg/mL (≈ 43.5 to 522 µM)
- MIC [3]: 12.5 to 150 µg/mL (≈ 43.5 to 522 µM)
- MIC [5]: 12.5 to 150 µg/mL (≈ 43.5 to 522 µM)
- MIC [6]: 12.5 to 150 µg/mL (≈ 43.5 to 522 µM)
- MIC [7]: 12.5 to 150 µg/mL (≈ 43.5 to 522 µM)
- MIC [8]: 12.5 to 150 µg/mL (≈ 43.5 to 522 µM)
- MIC [9]: 1 to 3.5 µg/mL (≈ 3.48 to 12.2 µM)
- MIC [10]: 12.5 to 150 µg/mL (≈ 43.5 to 522 µM)
- MIC [11]: 1 to 3.5 µg/mL (≈ 3.48 to 12.2 µM)
- MIC [13]: < 1 µg/mL
- MIC [14]: < 1 µg/mL

Structure (SMILES): CCc1c(-c2ccc(N(C)C)nc2)[nH]c(=O)c(C(=O)O)c1O [Cpd 87, 6-[6-(dimethylamino)pyridin-3-yl]-5-ethyl-4-hydroxy-2-oxo-1,2-dihydropyridine-3-carboxylic acid]
- MIC [1]: 12.5 to 150 µg/mL (≈ 41.2 to 495 µM)
- MIC [2]: 1 to 3.5 µg/mL (≈ 3.3 to 11.5 µM)
- MIC [3]: 12.5 to 150 µg/mL (≈ 41.2 to 495 µM)
- MIC [4]: 1 to 3.5 µg/mL (≈ 3.3 to 11.5 µM)
- MIC [5]: < 1 µg/mL
- MIC [6]: 12.5 to 150 µg/mL (≈ 41.2 to 495 µM)
- MIC [7]: 12.5 to 150 µg/mL (≈ 41.2 to 495 µM)
- MIC [8]: 12.5 to 150 µg/mL (≈ 41.2 to 495 µM)
- MIC [9]: < 1 µg/mL
- MIC [10]: 3.5 to 12.5 µg/mL (≈ 11.5 to 41.2 µM)
- MIC [11]: 1 to 3.5 µg/mL (≈ 3.3 to 11.5 µM)
- MIC [12]: 1 to 3.5 µg/mL (≈ 3.3 to 11.5 µM)
- MIC [13]: < 1 µg/mL
- MIC [14]: 1 to 3.5 µg/mL (≈ 3.3 to 11.5 µM)

Structure (SMILES): CCc1cc(C(=O)O)c(=O)[nH]c1-c1ccc(N(C)C)cc1 [Cpd 88, 6-[4-(dimethylamino)phenyl]-5-ethyl-2-oxo-1,2-dihydropyridine-3-carboxylic acid]
- MIC [1]: 12.5 to 150 µg/mL (≈ 43.7 to 524 µM)
- MIC [2]: 12.5 to 150 µg/mL (≈ 43.7 to 524 µM)
- MIC [3]: < 1 µg/mL
- MIC [4]: 12.5 to 150 µg/mL (≈ 43.7 to 524 µM)
- MIC [5]: 12.5 to 150 µg/mL (≈ 43.7 to 524 µM)
- MIC [6]: 3.5 to 12.5 µg/mL (≈ 12.2 to 43.7 µM)
- MIC [7]: 3.5 to 12.5 µg/mL (≈ 12.2 to 43.7 µM)
- MIC [8]: < 1 µg/mL
- MIC [9]: < 1 µg/mL
- MIC [10]: < 1 µg/mL
- MIC [11]: < 1 µg/mL
- MIC [12]: 12.5 to 150 µg/mL (≈ 43.7 to 524 µM)
- MIC [13]: < 1 µg/mL
- MIC [14]: 3.5 to 12.5 µg/mL (≈ 12.2 to 43.7 µM)

Structure (SMILES): CCc1c(-c2ccc(N(C)C)cc2)[nH]c(=O)c(C(=O)O)c1O [Cpd 90, 6-[4-(dimethylamino)phenyl]-5-ethyl-4-hydroxy-2-oxo-1,2-dihydropyridine-3-carboxylic acid]
- MIC [1]: 12.5 to 150 µg/mL (≈ 41.3 to 496 µM)
- MIC [2]: 12.5 to 150 µg/mL (≈ 41.3 to 496 µM)
- MIC [3]: 1 to 3.5 µg/mL (≈ 3.31 to 11.6 µM)
- MIC [4]: 12.5 to 150 µg/mL (≈ 41.3 to 496 µM)
- MIC [5]: 3.5 to 12.5 µg/mL (≈ 11.6 to 41.3 µM)
- MIC [6]: 12.5 to 150 µg/mL (≈ 41.3 to 496 µM)
- MIC [7]: 3.5 to 12.5 µg/mL (≈ 11.6 to 41.3 µM)
- MIC [8]: 3.5 to 12.5 µg/mL (≈ 11.6 to 41.3 µM)
- MIC [9]: < 1 µg/mL
- MIC [10]: 1 to 3.5 µg/mL (≈ 3.31 to 11.6 µM)
- MIC [11]: < 1 µg/mL
- MIC [12]: 12.5 to 150 µg/mL (≈ 41.3 to 496 µM)
- MIC [13]: < 1 µg/mL

Structure (SMILES): CCc1cc(C(=O)O)c(=O)[nH]c1-c1ccc(N2C[C@@H]3[C@@H](N)[C@@H]3C2)cc1 [Cpd 177, 6-{4-[(1R,5S,6s)-6-amino-3-azabicyclo[3.1.0]hex-3-yl]phenyl}-5-ethyl-2-oxo-1,2-dihydropyridine-3-carboxylic acid]
- MIC [1]: 12.5 to 150 µg/mL (≈ 36.8 to 442 µM)
- MIC [2]: 12.5 to 150 µg/mL (≈ 36.8 to 442 µM)
- MIC [3]: < 1 µg/mL
- MIC [4]: 12.5 to 150 µg/mL (≈ 36.8 to 442 µM)
- MIC [5]: 12.5 to 150 µg/mL (≈ 36.8 to 442 µM)
- MIC [6]: 1 to 3.5 µg/mL (≈ 2.95 to 10.3 µM)
- MIC [7]: 12.5 to 150 µg/mL (≈ 36.8 to 442 µM)
- MIC [8]: < 1 µg/mL
- MIC [9]: < 1 µg/mL
- MIC [10]: 1 to 3.5 µg/mL (≈ 2.95 to 10.3 µM)
- MIC [11]: < 1 µg/mL
- MIC [12]: 12.5 to 150 µg/mL (≈ 36.8 to 442 µM)
- MIC [13]: < 1 µg/mL

Structure (SMILES): CCc1cc(C(=O)O)c(=O)[nH]c1-c1ccc(N2C[C@@H]3[C@H](C2)[C@H]3NCc2ccccc2)cc1 [Cpd 178, 6-{4-[(1R,5S,6s)-6-(benzylamino)-3-azabicyclo[3.1.0]hex-3-yl]phenyl}-5-ethyl-2-oxo-1,2-dihydropyridine-3-carboxylic acid]
- MIC [1]: 12.5 to 150 µg/mL (≈ 29.1 to 349 µM)
- MIC [2]: 12.5 to 150 µg/mL (≈ 29.1 to 349 µM)
- MIC [3]: < 1 µg/mL
- MIC [4]: 12.5 to 150 µg/mL (≈ 29.1 to 349 µM)
- MIC [5]: 12.5 to 150 µg/mL (≈ 29.1 to 349 µM)
- MIC [6]: 12.5 to 150 µg/mL (≈ 29.1 to 349 µM)
- MIC [7]: 12.5 to 150 µg/mL (≈ 29.1 to 349 µM)
- MIC [8]: < 1 µg/mL
- MIC [9]: < 1 µg/mL
- MIC [10]: 1 to 3.5 µg/mL (≈ 2.33 to 8.15 µM)
- MIC [12]: 12.5 to 150 µg/mL (≈ 29.1 to 349 µM)
